The target of experiment [1] is T1, Serine/threonine-protein kinase Nek3 (Homo sapiens) (UniProt P51956).
T1 sequence (whole entry): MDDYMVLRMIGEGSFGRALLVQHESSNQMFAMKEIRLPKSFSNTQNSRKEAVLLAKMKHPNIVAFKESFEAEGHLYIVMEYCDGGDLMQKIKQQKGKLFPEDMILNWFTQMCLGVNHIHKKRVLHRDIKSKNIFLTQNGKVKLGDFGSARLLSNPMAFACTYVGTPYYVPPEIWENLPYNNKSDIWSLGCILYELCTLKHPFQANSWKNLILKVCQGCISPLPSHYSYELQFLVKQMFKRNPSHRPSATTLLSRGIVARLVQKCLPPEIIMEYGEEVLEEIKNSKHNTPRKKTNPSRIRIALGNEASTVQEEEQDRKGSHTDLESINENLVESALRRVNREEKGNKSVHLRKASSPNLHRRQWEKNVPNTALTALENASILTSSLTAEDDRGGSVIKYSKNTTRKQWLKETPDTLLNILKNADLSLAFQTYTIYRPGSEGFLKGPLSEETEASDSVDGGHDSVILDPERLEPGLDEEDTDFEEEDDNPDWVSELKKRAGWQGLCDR
As to the kind of experiment: Residual activity of human NEK3 using myelin basic protein as substrate at 1 uM in presence of 32P-ATP by Hotspot assay relative to control.

Experiment [2] deals with STE20/SPS1-related proline-alanine-rich protein kinase (Homo sapiens) (UniProt Q9UEW8). As to the kind of experiment: Residual activity of human STK39/STLK3 using myelin basic protein as substrate at 1 uM in presence of 32P-ATP by Hotspot assay relative to control.
The target in experiment [3] is T2, Tyrosine-protein kinase Tec (Homo sapiens) (UniProt P42680).
T2 sequence (whole entry): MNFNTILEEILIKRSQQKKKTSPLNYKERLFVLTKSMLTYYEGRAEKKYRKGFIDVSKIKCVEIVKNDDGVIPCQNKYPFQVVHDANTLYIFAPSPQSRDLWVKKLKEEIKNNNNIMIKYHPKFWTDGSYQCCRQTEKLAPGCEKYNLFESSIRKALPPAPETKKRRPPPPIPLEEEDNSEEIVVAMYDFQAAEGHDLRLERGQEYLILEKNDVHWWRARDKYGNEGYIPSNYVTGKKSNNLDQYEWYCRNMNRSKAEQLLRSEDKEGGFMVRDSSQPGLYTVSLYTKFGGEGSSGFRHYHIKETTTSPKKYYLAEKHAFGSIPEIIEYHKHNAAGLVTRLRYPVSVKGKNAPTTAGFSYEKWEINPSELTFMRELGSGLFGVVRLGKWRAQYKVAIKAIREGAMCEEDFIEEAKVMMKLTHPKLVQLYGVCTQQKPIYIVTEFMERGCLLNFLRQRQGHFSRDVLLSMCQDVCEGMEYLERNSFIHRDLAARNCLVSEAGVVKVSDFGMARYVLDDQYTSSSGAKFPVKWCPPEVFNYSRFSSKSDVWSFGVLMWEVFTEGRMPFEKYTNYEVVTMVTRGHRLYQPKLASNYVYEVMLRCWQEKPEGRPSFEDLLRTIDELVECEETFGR
As to the kind of experiment: Inhibition of human TEC using poly[Glu:Tyr] (4:1) as substrate at 1 uM in presence of 32P-ATP by Hotspot assay relative to control; values are per cent of control.

Experiment [4] addresses Epidermal growth factor receptor (Homo sapiens) (UniProt P00533). As to the kind of experiment: Inhibition of human EGFR using poly[Glu:Tyr] (4:1) as substrate at 1 uM in presence of 32P-ATP by Hotspot assay relative to control; values are per cent of control.
The target in experiment [5] is Ribosomal protein S6 kinase alpha-4 (Homo sapiens) (UniProt O75676). As to the kind of experiment: Inhibition of human MSK2/RPS6KA4 using GRPRTSSFAEG as substrate at 1 uM in presence of 32P-ATP by Hotspot assay relative to control; values are per cent of control.
Chain of Ribosomal protein S6 kinase alpha-4 (Homo sapiens) (O75676 whole entry, looked up): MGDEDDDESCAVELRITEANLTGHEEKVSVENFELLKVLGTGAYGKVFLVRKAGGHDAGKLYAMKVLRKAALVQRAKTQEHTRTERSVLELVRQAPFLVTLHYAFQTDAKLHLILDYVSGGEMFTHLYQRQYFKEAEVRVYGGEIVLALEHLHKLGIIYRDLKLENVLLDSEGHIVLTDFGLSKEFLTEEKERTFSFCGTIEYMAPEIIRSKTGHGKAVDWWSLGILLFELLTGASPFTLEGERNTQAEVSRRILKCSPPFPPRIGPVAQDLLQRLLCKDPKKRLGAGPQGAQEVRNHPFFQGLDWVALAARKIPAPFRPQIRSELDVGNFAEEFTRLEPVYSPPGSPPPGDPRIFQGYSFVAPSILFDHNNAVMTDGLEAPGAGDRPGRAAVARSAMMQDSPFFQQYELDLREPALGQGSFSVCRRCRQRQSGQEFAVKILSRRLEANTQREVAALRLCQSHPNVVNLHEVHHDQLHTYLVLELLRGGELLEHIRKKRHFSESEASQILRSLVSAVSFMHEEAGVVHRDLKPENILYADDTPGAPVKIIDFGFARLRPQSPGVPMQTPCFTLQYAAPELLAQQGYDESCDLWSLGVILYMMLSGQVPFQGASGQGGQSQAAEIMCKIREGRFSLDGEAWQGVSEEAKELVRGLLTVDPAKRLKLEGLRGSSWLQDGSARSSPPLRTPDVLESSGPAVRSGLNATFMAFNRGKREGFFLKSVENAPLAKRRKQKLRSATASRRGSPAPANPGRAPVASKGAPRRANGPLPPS
Experiment [6] concerns the target T3, Serine/threonine-protein kinase TBK1 (Homo sapiens) (UniProt Q9UHD2).
T3 sequence (whole entry): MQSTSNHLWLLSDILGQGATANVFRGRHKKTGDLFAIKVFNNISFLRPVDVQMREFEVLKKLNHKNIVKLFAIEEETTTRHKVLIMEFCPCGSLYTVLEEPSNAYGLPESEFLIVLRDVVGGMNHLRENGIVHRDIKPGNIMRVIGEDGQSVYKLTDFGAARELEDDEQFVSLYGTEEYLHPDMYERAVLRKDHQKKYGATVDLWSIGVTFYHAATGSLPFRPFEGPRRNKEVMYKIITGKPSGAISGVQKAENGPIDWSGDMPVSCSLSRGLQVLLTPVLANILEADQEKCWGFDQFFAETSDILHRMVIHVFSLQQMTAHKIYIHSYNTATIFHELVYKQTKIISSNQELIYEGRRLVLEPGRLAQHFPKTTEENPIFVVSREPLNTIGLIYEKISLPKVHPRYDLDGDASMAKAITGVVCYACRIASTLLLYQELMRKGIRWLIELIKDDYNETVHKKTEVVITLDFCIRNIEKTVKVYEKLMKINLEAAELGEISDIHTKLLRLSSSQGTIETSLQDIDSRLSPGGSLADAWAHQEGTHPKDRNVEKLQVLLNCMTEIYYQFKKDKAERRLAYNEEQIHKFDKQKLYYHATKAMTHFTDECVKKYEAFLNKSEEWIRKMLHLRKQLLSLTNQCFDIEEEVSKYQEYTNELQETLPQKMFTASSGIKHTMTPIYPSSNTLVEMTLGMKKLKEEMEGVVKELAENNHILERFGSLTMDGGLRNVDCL
As to the kind of experiment: Inhibition of human TBK1 using myelin basic protein as substrate at 1 uM in presence of 32P-ATP by Hotspot assay relative to control; values are per cent of control.

In experiment [7] the target is Serine/threonine-protein kinase 25 (Homo sapiens) (UniProt O00506). As to the kind of experiment: Inhibition of human STK25/YSK1 using myelin basic protein as substrate at 1 uM in presence of 32P-ATP by Hotspot assay relative to control; values are per cent of control.
Chain of Serine/threonine-protein kinase 25 (Homo sapiens) (O00506 whole entry, looked up): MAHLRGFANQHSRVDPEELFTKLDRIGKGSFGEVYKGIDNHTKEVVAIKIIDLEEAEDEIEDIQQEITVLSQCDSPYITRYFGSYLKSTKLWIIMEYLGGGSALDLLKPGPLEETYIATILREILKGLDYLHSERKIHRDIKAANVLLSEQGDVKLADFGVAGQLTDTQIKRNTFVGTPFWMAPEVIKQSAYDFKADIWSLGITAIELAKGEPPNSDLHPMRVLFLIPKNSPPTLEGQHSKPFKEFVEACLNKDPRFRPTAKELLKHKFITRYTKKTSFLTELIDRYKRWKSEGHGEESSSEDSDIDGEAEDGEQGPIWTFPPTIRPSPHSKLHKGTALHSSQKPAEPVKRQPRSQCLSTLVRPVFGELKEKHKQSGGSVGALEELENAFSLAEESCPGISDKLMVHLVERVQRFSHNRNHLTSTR
Experiment [8] addresses Mitogen-activated protein kinase 14 (Homo sapiens) (UniProt Q16539). As to the kind of experiment: Inhibition of human P38a/MAPK14 using myelin basic protein as substrate at 1 uM in presence of 32P-ATP by Hotspot assay relative to control; values are per cent of control.
The target of experiment [9] is Serine/threonine-protein kinase MARK2 (Homo sapiens) (UniProt Q7KZI7). As to the kind of experiment: Inhibition of human MARK2/PAR-1Ba using KKKVSRSGLYRSPSMPENLNRPR as substrate at 1 uM in presence of 32P-ATP by Hotspot assay relative to control; values are per cent of control.
Chain of Serine/threonine-protein kinase MARK2 (Homo sapiens) (Q7KZI7 whole entry): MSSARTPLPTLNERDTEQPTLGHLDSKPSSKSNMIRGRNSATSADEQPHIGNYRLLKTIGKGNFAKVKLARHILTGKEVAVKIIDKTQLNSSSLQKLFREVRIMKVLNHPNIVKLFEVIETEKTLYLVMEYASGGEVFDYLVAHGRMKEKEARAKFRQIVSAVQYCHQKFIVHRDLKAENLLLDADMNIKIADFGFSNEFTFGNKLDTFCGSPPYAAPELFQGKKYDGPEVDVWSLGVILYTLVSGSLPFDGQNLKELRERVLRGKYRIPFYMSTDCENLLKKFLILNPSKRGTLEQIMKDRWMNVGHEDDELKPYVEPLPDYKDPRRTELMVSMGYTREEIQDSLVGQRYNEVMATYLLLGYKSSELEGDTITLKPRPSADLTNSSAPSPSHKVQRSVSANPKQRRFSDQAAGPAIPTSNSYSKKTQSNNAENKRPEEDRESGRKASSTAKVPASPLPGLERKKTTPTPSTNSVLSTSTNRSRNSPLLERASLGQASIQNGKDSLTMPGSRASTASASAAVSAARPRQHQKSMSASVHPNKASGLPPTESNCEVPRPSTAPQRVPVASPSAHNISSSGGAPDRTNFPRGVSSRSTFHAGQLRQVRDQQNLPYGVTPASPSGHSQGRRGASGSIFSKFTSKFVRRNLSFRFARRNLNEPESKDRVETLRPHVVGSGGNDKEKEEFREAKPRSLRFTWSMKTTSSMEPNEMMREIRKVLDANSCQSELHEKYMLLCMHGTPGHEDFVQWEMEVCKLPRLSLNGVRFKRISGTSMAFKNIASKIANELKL

Chain of Mitogen-activated protein kinase 14 (Homo sapiens) (Q16539 whole entry): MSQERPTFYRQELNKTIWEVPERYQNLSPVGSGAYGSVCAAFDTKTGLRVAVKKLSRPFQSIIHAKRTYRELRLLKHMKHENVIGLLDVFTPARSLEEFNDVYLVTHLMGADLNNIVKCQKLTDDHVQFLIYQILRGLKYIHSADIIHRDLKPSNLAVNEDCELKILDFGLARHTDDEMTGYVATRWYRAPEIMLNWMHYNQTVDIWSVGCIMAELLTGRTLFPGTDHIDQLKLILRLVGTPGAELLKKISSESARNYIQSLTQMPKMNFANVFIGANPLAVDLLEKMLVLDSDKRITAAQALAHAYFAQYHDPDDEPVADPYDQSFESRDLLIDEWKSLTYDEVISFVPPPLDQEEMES
Chain of Epidermal growth factor receptor (Homo sapiens) (P00533 whole entry): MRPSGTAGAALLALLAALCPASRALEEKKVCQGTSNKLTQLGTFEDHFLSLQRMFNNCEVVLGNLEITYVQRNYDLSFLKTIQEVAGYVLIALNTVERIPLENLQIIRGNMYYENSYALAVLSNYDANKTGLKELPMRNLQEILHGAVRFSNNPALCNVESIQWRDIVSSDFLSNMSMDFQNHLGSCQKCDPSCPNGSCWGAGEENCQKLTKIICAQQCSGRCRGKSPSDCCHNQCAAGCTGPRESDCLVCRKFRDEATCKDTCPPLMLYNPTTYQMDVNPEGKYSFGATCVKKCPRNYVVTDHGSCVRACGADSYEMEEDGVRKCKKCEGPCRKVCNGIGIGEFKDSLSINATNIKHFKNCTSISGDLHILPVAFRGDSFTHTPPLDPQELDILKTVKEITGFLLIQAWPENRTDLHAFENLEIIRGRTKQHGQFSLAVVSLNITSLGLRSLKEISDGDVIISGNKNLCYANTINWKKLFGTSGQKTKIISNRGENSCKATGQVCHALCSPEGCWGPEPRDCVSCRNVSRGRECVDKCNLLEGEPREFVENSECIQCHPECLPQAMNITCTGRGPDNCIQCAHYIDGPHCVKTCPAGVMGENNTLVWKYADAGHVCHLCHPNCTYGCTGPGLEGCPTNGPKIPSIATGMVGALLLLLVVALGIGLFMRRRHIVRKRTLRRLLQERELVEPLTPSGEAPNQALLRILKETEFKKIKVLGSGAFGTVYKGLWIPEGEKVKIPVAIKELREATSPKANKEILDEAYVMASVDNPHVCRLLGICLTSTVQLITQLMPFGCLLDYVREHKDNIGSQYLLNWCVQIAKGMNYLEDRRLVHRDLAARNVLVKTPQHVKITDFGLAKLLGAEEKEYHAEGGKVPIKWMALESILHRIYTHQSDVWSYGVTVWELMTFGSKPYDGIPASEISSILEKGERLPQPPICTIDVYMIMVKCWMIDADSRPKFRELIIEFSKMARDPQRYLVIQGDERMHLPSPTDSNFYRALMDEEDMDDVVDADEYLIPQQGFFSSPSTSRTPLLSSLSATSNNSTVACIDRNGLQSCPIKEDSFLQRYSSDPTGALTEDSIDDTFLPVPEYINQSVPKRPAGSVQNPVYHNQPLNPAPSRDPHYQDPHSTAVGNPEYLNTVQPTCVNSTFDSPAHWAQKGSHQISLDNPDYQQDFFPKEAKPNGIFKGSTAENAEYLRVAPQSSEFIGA

On to `CNC(=O)c1ccc2c(c1)ncn2-c1ccc(CC(=O)OC(C)(C)C)cc1`, for which the residual activity amounted to 91.3% in [1]; 103% in [2]; 93.1% in [3]; 97.7% in experiment [4]; 96.9% in experiment [5]; 84.2% in experiment [6]. Also, the residual activity in [7] came to 104%; in experiment [8], 95.8%; in experiment [9] it was 95.6%.
Take `Cc1cc(-c2cnc(N)c3c(-c4ccc5scnc5c4)csc23)n(C)n1`: the residual activity in experiment [1] was found to be 99.7%; in experiment [2], 108%; in experiment [3] it was 89.7%; in experiment [4], 93.9%; in experiment [5], 99.3%; in experiment [6], 105%. Also, the residual activity in experiment [7] is 106%; in experiment [8], 40.9%; in [9], 95.2%.
Take `CC(C)S(=O)(=O)c1ccc2nccc(Nc3ccc4scnc4c3)c2c1`: the residual activity in [1] turned out to be 92%; in [2], 94.9%; in experiment [3] it was 99.8%; in experiment [4], 90.7%; in experiment [5], 95.4%; in experiment [6], 96.1%. In addition, the residual activity was 98.8% in experiment [7], 91.5% in [8] and 96.6% in experiment [9].

For the origin of these results see ChEMBL document CHEMBL5649166, “RIP3 induces apoptosis independent of pronecrotic kinase activity” (Mol Cell, 2014).
